Source: patent publication US7351688B2, “Compositions and methods for less immunogenic protein formulations” (The Research Foundation of State University of New York, priority 2003, dated 2008)

System: Hemophilia A mice
Experiment: Immunogenicity of simple complexes, subcutaneous: total antibody titers (ELISA) and inhibitory titers (Bethesda Units)
Conditions: mouse, in vivo, sc
Experimental: To illustrate this example, simple complexes were prepared with phosphoserine, phosphocholine or phaphatidic acid. Immunogenicity was tested by subcutaneous administration of the complexes in Hemophilia A mice.

phosphatidic acid
effect on immunogenicity (total antibody titers and inhibitory titers) versus rFVIII: not
